Test results published in patent publication US20260207626A1, “SYNTHETIC TRITERPENOIDS AND COMPOSITIONS THEREOF IN WEIGHT MANAGEMENT, SKELETAL MUSCLE FUNCTION, AND APPETITE SUPPRESSION” (The Board of Regents of the University of Texas System, priority 2022, published 2026).
“Also recorded” adds a separate entry of the source. Marks after values point to notes of the source that are not given here.

Key:
IκB-α (Ser32) = experiment: Western blot of LPS-induced IκB-α phosphorylation in L6-GLUT4myc myotubes; type: cell-based, rat; conditions: 500 nM CDDO-EA 1 hr then 100 ng/ml LPS 1 hr
Source text: To examine the anti-inflammatory properties of CDDO-EA in skeletal muscle cells, CDDO-EA was examined for its effect on nuclear factor-kappa B (NF-κB) activity in L6-GLUT4myc muscle cells, in the context of LPS-mediated inflammatory responses in L6-GLUT4myc muscle cells. All experiments were independently repeated one to four times and done in duplicate or triplicate, and data were statistically analyzed by One-Way ANOVA or unpaired t-test, two tailed.
Cells were studied with vehicle alone [0.125% dimethyl sulfoxide (DMSO)] and LPS with and without CDDO-EA. […]
Western blotting and subcellular fractionation: L6-GLUT4myc myoblasts (4×10^4 cells/ml, 2 ml/well) were seeded onto 6-well dishes and differentiated with differentiation medium for 7 days. […] Protein concentrations were determined using the Pierce BCA Protein Assay (Thermo Fisher Scientific), and equal amounts of protein were separated by electrophoresis and subsequently transferred to nitrocellulose membranes. Membranes were analyzed using the following antibodies from Cell Signaling Technology: phosphorylated NF-κB (Ser536) (93 H1, cat #3033,1:1000), phosphorylated IKB-α (Ser32) (14D4, cat #2859,1:1000), IKB-α (44D4, cat #4812, 1:1000), phosphorylated p38 (Thr180/Tyr182) (cat #9211, 1:1000), p38 (cat #9212, 1:1000). […] Bands were quantitated using ImageQuant (GE Healthcare). […]

[1] = Energy expenditure (Promethion Metabolic Analyzer) in mice fed HFD with or without CDDO-EA, LFD or HFD pair-fed; type: in vivo, C57BL/6J mice; conditions: HFD + CDDO-EA (0.04%), days 3-9
Protocol: FIG. 22A and FIG. 22B. […] FIG. 22A. EE was measured 289 times in a 24-hour cycle at each day from 3-9 days of the experimental feeding. FIG. 22B. Average EE for days 3-9 of experimental feeding. C57BL/6J mice were fed a HFD with or without incorporation of CDDO-EA (diet containing 0.04% CDDO-EA) or LFD or HFD pair-fed for 6 weeks (n=5).
C57BL/6J mice (6-8 weeks old, male, strain #000664, The Jackson Laboratory) were divided into four (4) groups (i)-(iv)): (i) ad libitum Low fat caloric content (LFD-10% of total calories from fat caloric content, #TD.08806, Envigo), (ii) ad libitum HFD (60% of total calories from fat caloric content, #TD.06414, Envigo), (iii) HFD+CDDO-EA (diet containing 0.04% CDDO-EA), and (iv) HFD pair-fed to food intake of mice fed HFD+CDDO-EA. The study was for 6 weeks (42 days) (performed at Vanderbilt Metabolic Mouse Phenotyping Center (VMMPC)). Mice were singly housed in a Promethion Metabolic Analyzer and were monitored continuously for 7 days to assess feeding and EE.

TNF-α = experiment: Quantitative RT-PCR of LPS-induced TNF-α mRNA in L6-GLUT4myc myotubes; type: cell-based, rat; conditions: 500 nM CDDO-EA 1 hr then 100 ng/ml LPS 1 hr
Protocol: Quantitative RT-PCR: L6-GLUT4myc myoblasts (4×10^4 cell/ml, 2 ml/well) were seeded on a 6-well plate and differentiated into myo-tubes with differentiation medium for 7 days. Myotubes were pre-treated with CDDO-EA 500 nM for 1 h followed by LPS 100 ng/ml (E. coli O111: B4, Sigma Aldrich) treatment for 1 h. RNA was isolated from treated myotubes using TRIzol reagent (Ambion) according to the manufacturer's instructions. Validated RT-PCR primers specific for rat TNF-α (Assay ID: Rn99999017_m1) and rat MCP-1 (Assay ID: Rn00580555_m1), or rat GAPDH (Assay ID: Rn99999916_s1) were used to quantify mRNA levels using TaqMan RNA-to-CT 1-Step Kit (Thermo Fisher Scientific), Real-time PCR was carried out using an AB7900HT Fast Real-Time PCR System (Applied Biosystems), and MCP-1 and TNF-α levels were calculated using the ΔΔCT method according to the manufacturer's instructions.

[2] = Chow consumption / energy intake of mice fed LFD or HFD with or without CDDO-EA; type: in vivo, C57B16/J mice
Protocol: To assess the protective effects of CDDO-EA from obesity and insulin resistance, C57B16/J mice (6-8 weeks old, male, strain #000664, The Jackson Laboratory) were used. The animals were fed a Low Fat diet (LFD) (10% total calories from fat, […]) or a High Fat diet (HFD) (60% of total calories from fat) incorporated with or without CDDO-EA (chow containing 0.04% CDDO-EA) for six weeks.
Energy intake was also measured. Energy intake is determined as a measure of the amount of food consumed by a subject (such as a subject mouse). […] Thus CDDO-EA protects from development of HFD-induced obesity in vivo.
The mice were maintained on one of the 4 food regiment schedules as defined in Example 2. The amount of food consumed by an animal was monitored weekly.

CCNC(=O)[C@]12CCC(C)(C)C[C@H]1C1C(=O)C=C3[C@@]4(C)C=C(C#N)C(=O)C(C)(C)[C@@H]4CC[C@@]3(C)[C@]1(C)CC2 (stereo partly drawn) [CDDO-EA, (4aS,6aR,6bS,8aR,12aS,14bS)-11-cyano-N-ethyl-2,2,6a,6b,9,9,12a-heptamethyl-10,14-dioxo-1,3,4,5,6,6a,6b, 7,8,8a,9,10,12a, 14,14a, 14b-hexadecahydropicene-4a (2H)-carboxamide]
LPS-induced IκB-α phosphorylation (IκB-α (Ser32)): decreased LPS-induced NF-κB and nuclear factor of kappa light polypeptide gene enhancer in B-cells inhibitor-alpha (IκB) phosphorylation; also recorded: inhibited the LPS-induced phosphorylation of IκB-α; also recorded: inhibits lipopolysaccharide (LPS)-induced NF-κB and Inhibitory kappa B alpha (IκB-α) phosphorylation
energy expenditure (EE) [1]: does not affect EE; also recorded: does not affect energy expenditure
LPS-induced TNF-α mRNA expression (TNF-α): lowered LPS-induced mRNA levels of TNF-α and MCP-1; also recorded: blocked the mRNA expression of LPS-induced TNF-α and MCP-1; also recorded: reduced LPS-induced TNF-α and MCP-1 gene expression levels; also recorded: inhibits LPS-inducted TNF-α and MCP-1 gene expression
Grams of Chow per Week Consumed by Animals ([2]; HFD + CDDO-EA (0.04%), week 1): 18.0 ± 0.9 Grams of Chow per Week
Grams of Chow per Week Consumed by Animals ([2]; HFD + CDDO-EA (0.04%), week 2): 18.4 ± 1.0 Grams of Chow per Week
Grams of Chow per Week Consumed by Animals ([2]; HFD + CDDO-EA (0.04%), week 3): 16.8 ± 0.5 Grams of Chow per Week
Grams of Chow per Week Consumed by Animals ([2]; HFD + CDDO-EA (0.04%), week 4): 15.8 ± 0.4* * Grams of Chow per Week
Grams of Chow per Week Consumed by Animals ([2]; HFD + CDDO-EA (0.04%), week 5): 16.2 ± 0.5 Grams of Chow per Week
Grams of Chow per Week Consumed by Animals ([2]; HFD + CDDO-EA (0.04%), week 6): 16.6 ± 0.4 Grams of Chow per Week
energy intake (caloric food consumption) ([2]; HFD chow mixed with CDDO-EA): decreased energy intake; also recorded: inhibits energy intake
average weekly chow consumption ([2]; HFD+CDDO-EA group, all six weeks): 17 g
Grams of Chow per Week Consumed by Animals ([2]; LFD + CDDO-EA (0.04%), week 1): 19.2 ± 0.6 Grams of Chow per Week
Grams of Chow per Week Consumed by Animals ([2]; LFD + CDDO-EA (0.04%), week 2): 21.5 ± 0.6 Grams of Chow per Week
Grams of Chow per Week Consumed by Animals ([2]; LFD + CDDO-EA (0.04%), week 3): 21.1 ± 0.7 Grams of Chow per Week
Grams of Chow per Week Consumed by Animals ([2]; LFD + CDDO-EA (0.04%), week 4): 20.0 ± 0.2 Grams of Chow per Week
Grams of Chow per Week Consumed by Animals ([2]; LFD + CDDO-EA (0.04%), week 5): 21.3 ± 0.3 Grams of Chow per Week
Grams of Chow per Week Consumed by Animals ([2]; LFD + CDDO-EA (0.04%), week 6): 19.8 ± 0.4 Grams of Chow per Week
more food consumed by HFD-fed animals than by HFD plus CDDO-EA-fed animals ([2]; week 3): 20%
more food consumed by HFD-alone animals than by HFD + CDDO-EA animals ([2]; week one): at least 10%
